Reference: publication PMC4772377, “Structural insights into Cydia pomonella pheromone binding protein 2 mediated prediction of potentially active semiochemicals” (Scientific Reports, 2016)

Molecular target: CpomPBP2 (Cydia pomonella, UniProt I3ZNT9)
Assay: Competitive fluorescence binding assay with 1-NPN probe
Settings: 2 μM CpomPBP2 and 2 μM 1-NPN, 50 mM Tris-HCl pH 6.8 (text: pH7.0); calculated from IC50; read-out: KD (dissociation constant of competitor)

Sequence of CpomPBP2 (I3ZNT9 26-169 limits assumed): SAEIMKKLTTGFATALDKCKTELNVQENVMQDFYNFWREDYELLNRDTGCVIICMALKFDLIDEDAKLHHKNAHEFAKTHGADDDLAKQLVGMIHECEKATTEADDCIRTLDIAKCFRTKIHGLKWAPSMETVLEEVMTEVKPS

Compound	Kd
CCCCCCC/C=C/C=C/C=O [E,E-2,4-Dodecadienal]	6.99 ± 0.72 µM
CCCCCCOC(=O)CCCCC [Hexyl Hexanoate]	16.2 ± 0.84 µM
CCC=CCCOC(=O)C(C)CC (stereo not drawn) [Z-3-Hexenyl-2-Methylbutanoate]	97 ± 2.26 µM
